Each structure is given as a SMILES string.

Test [1] relates to Qβ replicase. The test is described as follows: Effect of propidium iodide on replication of wild type MDV-1 RNA in a Qβ replicase preparation (32P-CTP incorporation, geometric phase). The format is biochemical, bacteriophage Qβ. The conditions noted are these: wild type MDV-1 template. How it is done:
Propidium iodide was tested for its effect on the replication of wild type RNA in a preparation of Qβ replicase. Propidium iodide in an amount of either 0, 1, or 3µg/ml was added to a reaction buffer containing: 90mM Tris HC1 (pH7.5), 14mM MgC1₂, 0.4mM each ATP, GTP, UTP, and CTP, and 10µCi α-³²P-CTP. The Qβ replicase reaction was initiated in each sample by addition of 1.2µg of Qβ replicase prepared according to the method of Eoyang and August, (1972), ibid. Aliquots of the reaction mixture were withdrawn every 5 minutes and spotted on DE81 filters (Schleicher & Schuell Inc., Keene, NH). The spotted filters were washed repeatedly with 0.5M NaPO₄, (pH7.0) to remove unincorporated nucleotide. The filters were counted for Cerenkov radiation by standard procedures in a scintillation counter. Addition of propidium iodide delayed the point in time at which levels of incorporation resulting from the replication of wild type MDV-1 template became detectable. One microgram per milliter delayed the appearance of replicated product between about 2-5 minutes, which corresponds to about 20-50% inhibition of the rate of replication in the geometric phase, and 3µg/ml delayed the appearance of product for about 20 minutes, which corresponds to approximately a 3-fold reduction in the rate of replication.

The subject of test [2] is Qβ replicase. Nature of the test: Inhibition by dyes of MDV-1 replication in linear-phase Qβ replicase reactions. The conditions noted are these: about 3µg/ml dye; MDV-1 template. Type of test: biochemical, bacteriophage Qβ. As for the experimental part:
A number of dyes, including ethidium bromide, ethidium bromide homodimer, propidium iodide, proflavine, quinacrine, Hoescht 33258 (bis-benzamidine), dimidium bromide and acridine orange, were tested for their ability to inhibit the replication of MDV-1 in linear-phase reactions, i.e., where the template RNA is present in excess over the enzyme and the amount of replicated RNA thus increases linearly with time. […] One of the strongest inhibitors, propidium iodide, was selected for further study. A concentration of dye producing a 70% inhibition of replication, about 3µg/ml, is sufficiently low to allow detection of the fluorescence increase produced when the dye binds to the RNA products of the reaction.

As for `CC[N+](C)(CC)CCC[n+]1c(-c2ccccc2)c2cc(N)ccc2c2ccc(N)cc21` [propidium iodide], in test [1] (1 µg/ml propidium iodide), the “delay of the appearance of replicated product” value is 2 to 5 min and the “inhibition of the rate of replication in the geometric phase” value is on record as 20-50%. Moreover, in test [1] (3µg/ml propidium iodide), the “delay of the appearance of product” value is “about 20 minutes” and the “reduction in the rate of replication” value is ~3 fold. Further, the inhibition of replication in test [2] was 70%.

The record behind these values is patent EP0454461A1, “Selective amplification system using Q beta replicase, a hybridization assay and a method of detecting and assessing concentration of target nucleic acid in liquid samples” (GENE-TRAK SYSTEMS CORPORATION, priority 1990, dated 1991).
